These molecules were tested against T1, CYP4A (Homo sapiens, UniProt Q02928) (assay: CYP4A enzyme assay (Luciferin-ME luminescence, CYP4A bactosome)). Conditions: compound concentration 5 μM; 25%-50%; read-out: % Inhibition 25%-50%.
T1 construct: host or cells: bactosome, i.e. bacterial membrane preparation (own knowledge of the term)
T1 sequence (Q02928 5-519): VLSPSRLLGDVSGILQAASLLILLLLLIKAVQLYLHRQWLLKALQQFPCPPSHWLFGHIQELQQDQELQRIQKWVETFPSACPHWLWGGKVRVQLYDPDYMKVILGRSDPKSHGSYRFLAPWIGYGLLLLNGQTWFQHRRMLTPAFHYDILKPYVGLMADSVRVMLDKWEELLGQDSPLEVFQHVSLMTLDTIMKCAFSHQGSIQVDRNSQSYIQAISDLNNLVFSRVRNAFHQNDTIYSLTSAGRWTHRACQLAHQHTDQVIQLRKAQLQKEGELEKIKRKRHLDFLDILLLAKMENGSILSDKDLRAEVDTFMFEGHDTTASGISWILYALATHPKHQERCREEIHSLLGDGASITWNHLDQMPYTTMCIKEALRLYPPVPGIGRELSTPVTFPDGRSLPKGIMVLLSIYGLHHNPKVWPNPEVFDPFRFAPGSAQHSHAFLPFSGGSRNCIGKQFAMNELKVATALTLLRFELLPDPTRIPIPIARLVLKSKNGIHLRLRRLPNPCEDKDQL
Format: biochemical
Description: A commercially available reagent was used for the reagent used in the experiment, and it was manufactured and used if necessary. The device used for activity measurement was EnVision of PerkinElmer or SpectraMax of MOLECULAR DEVICES.
First, CYP4A bactosome and synthetic compound (5 μM) were mixed in assay buffer (100 mM KPO4, 0.1% BSA, 1 mM DTT) in a 384-well plate (white opaque ploystyrene nontreated flat-bottom well), and then reacted at room temperature for 15 minutes. After adding 5 mM Luciferin-ME and NADPH Regeneration system (10× sol.A, 20× sol.B in assay buffer, Cat. Number: V865B, Promega), leave it at room temperature for 30 minutes to allow the CYP4A reaction to occur sufficiently, by adding the Luciferin Detection reagent, the CYP4A reaction was finished, luminescence reaction was induced, and the reaction was carried out at room temperature for 15 minutes. The degree of inhibition of CYP4A activity was measured by comparing the luminescence values from each well with a microplate reader.

| inhibition at 5 µM | SMILES |
| --- | --- |
| 25 to 50% | O=C(C1CCCN(S(=O)(=O)c2ccc(O)cc2)C1)N1CCN(c2cc(C(F)(F)F)nc3ccccc23)CC1 (stereo not shown) [Formula 68, (1-(4-hydroxyphenylsulfonyl)piperidin-3-yl) (4-(2-(trifluoromethyl)quinolin-4-yl)piperazin-1-yl) methanone] |
| 25 to 50% | O=C(C1CCCN(S(=O)(=O)c2cccc(F)c2)C1)N1CCN(c2cc(C(F)(F)F)nc3ccccc23)CC1 (stereo not shown) [Formula 72, (1-(3-fluorophenylsulfonyl)piperidin-3-yl) (4-(2-(trifluoromethyl)quinolin-4-yl)piperazin-1-yl) methanone] |
| 25 to 50% | Cc1ccc(S(=O)(=O)N2CCCC(C(=O)N3CCN(c4cc(C)nc5ccccc45)CC3)C2)cc1 (stereo not shown) [Formula 20, (4-(2-methylquinolin-4-yl)piperazin-1-yl) (1-tosylpiperidin-3-yl) methanone] |
| 25 to 50% | O=C(C1CCCN(S(=O)(=O)c2c(F)c(F)c(F)c(F)c2F)C1)N1CCN(c2cc(C(F)(F)F)nc3ccccc23)CC1 (stereo not shown) [Formula 73, (1-(perfluorophenylsulfonyl)piperidin-3-yl) (4-(2-(trifluoromethyl)quinolin-4-yl)piperazin-1-yl) methanon] |

Same assay, conditions: compound concentration 5 μM; 75% or more; read-out: % Inhibition 75% or more

| inhibition at 5 µM | SMILES |
| --- | --- |
| ≥ 75% | CC(=O)Nc1ccc(S(=O)(=O)N2CCC[C@H](C(=O)N3CCN(c4ccnc5cc(F)ccc45)CC3)C2)cc1 [Formula 47, (S)—N-(4-(3-(1-(7-fluoroquinolin-4-yl)piperazine-4-carbonyl)piperidin-1-ylsulfonyl)phenyl) acetamide] |
| ≥ 75% | CS(=O)(=O)c1ccc(S(=O)(=O)N2CCCC(C(=O)N3CCN(c4ccnc5cc(Cl)ccc45)CC3)C2)cc1 (stereo not shown) [Formula 11, (4-(7-chloroquinolin-4-yl)piperazin-1-yl) (1-(4-(methylsulfonyl)phenylsulfonyl)piperidin-3-yl) methanone] |
| ≥ 75% | O=C(C1CCCN(S(=O)(=O)c2ccc(O)cc2)C1)N1CCN(c2ccnc3ccccc23)CC1 (stereo not shown) [Formula 76, (1-((4-hydroxyphenyl)sulfonyl)piperidin-3-yl) (4-(quinolin-4-yl)piperazin-1-yl) methanone] |
| ≥ 75% | O=C(C1CCCN(S(=O)(=O)c2cccc([N+](=O)[O-])c2)C1)N1CCN(c2ccnc3cc(Cl)ccc23)CC1 (stereo not shown) [Formula 6, (4-(7-chloroquinolin-4-yl)piperazin-1-yl) (1-((3-nitrophenyl)sulfonyl)piperidin-3-yl) methanone] |
| ≥ 75% | O=C(C1CCCN(S(=O)(=O)c2ccc(O)cc2)C1)N1CCN(c2ccnc3cc(F)ccc23)CC1 (stereo not shown) [Formula 43, (4-(7-fluoroquinolin-4-yl)piperazin-1-yl) (1-((4-hydroxyphenyl)sulfonyl)piperidin-3-yl) methanone] |
| ≥ 75% | O=C([C@@H]1CCCN(S(=O)(=O)c2cccc([N+](=O)[O-])c2)C1)N1CCN(c2ccnc3cc(F)ccc23)CC1 [Formula 60, (R)-(4-(7-fluoroquinolin-4-yl)piperazin-1-yl) (1-(3-nitrophenylsulfonyl)piperidin-3-yl) methanone] |
| ≥ 75% | COc1cccc(S(=O)(=O)N2CCCC(C(=O)N3CCN(c4ccnc5ccccc45)CC3)C2)c1 (stereo not shown) [Formula 86, (1-(3-methoxyphenylsulfonyl)piperidin-3-yl) (4-(quinolin-4-yl)piperazin-1-yl) methanone] |
| ≥ 75% | CN(C)c1ccc(S(=O)(=O)N2CCC[C@@H](C(=O)N3CCN(c4ccnc5ccccc45)CC3)C2)cc1 [Formula 79, (R)-(1-(4-(dimethylamino)phenylsulfonyl)piperidin-3-yl) (4-(quinolin-4-yl)piperazin-1-yl)methanone] |
| ≥ 75% | N#Cc1ccc(S(=O)(=O)N2CCCC(C(=O)N3CCN(c4ccnc5cc(Cl)ccc45)CC3)C2)cc1 (stereo not shown) [Formula 10, 4-(3-(1-(7-chloroquinolin-4-yl)piperazine-4-carbonyl)piperidin-1-ylsulfonyl)benzonitrile] |
| ≥ 75% | O=C(C1CCCN(S(=O)(=O)c2ccc(-c3ccccc3)cc2)C1)N1CCN(c2ccnc3cc(F)ccc23)CC1 (stereo not shown) [Formula 55, (4-(7-fluoroquinolin-4-yl)piperazin-1-yl) (1-(4-phenylbenzenesulfonyl)piperidin-3-yl) methanone] |
| 0% | Cc1cc(N2CCN(C(=O)C3CCCN(S(=O)(=O)c4ccc(-c5cnc(C)nc5)cc4)C3)CC2)c2ccccc2n1 (stereo not shown) [Formula 104, (1-((4-(2-methylpyrimidin-5-yl)phenyl)sulfonyl)piperidin-3-yl) (4-(2-methylquinolin-4-yl)piperazin-1-yl) methanone] |
| ≥ 75% | CN(C)c1ccc(S(=O)(=O)N2CCC[C@H](C(=O)N3CCN(c4ccnc5cc(F)ccc45)CC3)C2)cc1 |
| ≥ 75% | O=C(C1CCCN(S(=O)(=O)c2ccc(O)cc2)C1)N1CCN(c2ccnc3cc(Cl)ccc23)CC1 (stereo not shown) [Formula 5, (4-(7-chloroquinolin-4-yl)piperazin-1-yl) (1-((4-hydroxyphenyl)sulfonyl)piperidin-3-yl) methanone] |
| ≥ 75% | O=C(C1CCCN(S(=O)(=O)c2cccc(-c3cncnc3)c2)C1)N1CCN(c2ccnc3cc(F)ccc23)CC1 (stereo not shown) [Formula 112, (4-(7-fluoroquinolin-4-yl)piperazin-1-yl) (1-(3-(pyrimidin-5-yl)phenylsulfonyl)piperidin-3-yl) methanone] |

Same assay, conditions: compound concentration 5 μM; '50%-75%'; read-out: % Inhibition 50%-75%

| inhibition at 5 µM | SMILES |
| --- | --- |
| 50 to 75% | Cc1cc(N2CCN(C(=O)C3CCCN(S(=O)(=O)c4ccc(Cl)cc4)C3)CC2)c2ccccc2n1 (stereo not shown) [Formula 25, (1-(4-chlorophenylsulfonyl)piperidin-3-yl) (4-(2-methylquinolin-4-yl)piperazin-1-yl) methanone] |
| 50 to 75% | CN(C)c1ccc(S(=O)(=O)N2CCCC(C(=O)N3CCN(c4cc(C(F)(F)F)nc5ccccc45)CC3)C2)cc1 (stereo not shown) [Formula 67, (1-(4-(dimethylamino)phenylsulfonyl)piperidin-3-yl) (4-(2-(trifluoromethyl)quinolin-4-yl)piperazin-1-yl) methanone] |
| 50 to 75% | Cc1cc(N2CCN(C(=O)C3CCCN(S(=O)(=O)c4ccc(-c5cncnc5)cc4)C3)CC2)c2ccccc2n1 (stereo not shown) [Formula 103, (4-(2-methylquinolin-4-yl)piperazin-1-yl) (1-((4-(pyrimidin-5-yl)phenyl)sulfonyl)piperidin-3-yl) methanone] |
| 0% | COc1ccc2c(N3CCN(C(=O)C4CCCN(S(=O)(=O)c5ccc(NC(C)=O)cc5)C4)CC3)ccnc2c1 (stereo not shown) [Formula 87, N-(4-(3-(1-(7-methoxyquinolin-4-yl)piperazine-4-carbonyl)piperidin-1-ylsulfonyl)phenyl) acetamide] |
| 50 to 75% | COc1ccc2c(N3CCN(C(=O)C4CCCN(S(=O)(=O)c5ccc(N(C)C)cc5)C4)CC3)ccnc2c1 (stereo not shown) [Formula 90, (1-(4-(dimethylamino)phenylsulfonyl)piperidin-3-yl) (4-(7-methoxyquinolin-4-yl)piperazin-1-yl) methanone] |
| 50 to 75% | O=C([C@@H]1CCCN(S(=O)(=O)c2ccc(O)cc2)C1)N1CCN(c2cc(C(F)(F)F)nc3ccccc23)CC1 [Formula 69, (R)-(1-(4-hydroxyphenylsulfonyl)piperidin-3-yl) (4-(2-(trifluoromethyl)quinolin-4-yl)piperazin-1-yl) methanone] |
| 50 to 75% | CC(=O)Nc1ccc(S(=O)(=O)N2CCCC(C(=O)N3CCN(c4cc(C(F)(F)F)nc5ccccc45)CC3)C2)cc1 (stereo not shown) [Formula 63, N-(4-(3-(1-(2-(trifluoromethyl)quinolin-4-yl)piperazine-4-carbonyl)piperidin-1-ylsulfonyl)phenyl) acetamide] |
| 50 to 75% | Cc1ccc(S(=O)(=O)N2CCCC(C(=O)N3CCN(c4ccnc5cc(Cl)ccc45)CC3)C2)cc1 (stereo not shown) [Formula 2, (4-(7-chloroquinolin-4-yl)piperazin-1-yl) (1-tosylpiperidin-3-yl) methanone] |
| 50 to 75% | COc1ccc(S(=O)(=O)N2CCCC(C(=O)N3CCN(c4cc(C)nc5ccccc45)CC3)C2)cc1 (stereo not shown) [Formula 29, (1-(4-methoxyphenylsulfonyl)piperidin-3-yl) (4-(2-methylquinolin-4-yl)piperazin-1-yl)methanone] |

Same assay, conditions: compound concentration 5 μM; mark in column '25% or less'; read-out: % Inhibition 25% or less

| inhibition at 5 µM | SMILES |
| --- | --- |
| ≤ 25% | Cc1cc(N2CCN(C(=O)C3CCCN(S(=O)(=O)c4ccc(C(=O)O)cc4)C3)CC2)c2ccccc2n1 (stereo not shown) [Formula 100, 4-(3-(1-(2-methylquinolin-4-yl)piperazine-4-carbonyl)piperidin-1-ylsulfonyl)benzoic acid] |
